Measured values published in ChEMBL document CHEMBL5346971, “Discovery of the First Irreversible HDAC6 Isoform Selective Inhibitor with Potent Anti-Multiple Myeloma Activity” (J Med Chem, 2023).
Calls of active or inactive are those of the source. No cut-off for these calls is given here.

What was measured:
RPMI-8226 [1] = test: Antitumor activity against human RPMI-8226 cells xenografted in NCG mouse assessed as tumor growth inhibition at 50 ug administered intratumorally every 2 days by vernier caliper analysis; assay type: functional; conditions: dose 50 µg; route it(Intratumoral)
RPMI-8226 [2] = test: Antitumor activity against human RPMI-8226 cells xenografted in NCG mouse assessed as T/C ratio at 50 ug administered intratumorally every 2 days by vernier caliper analysis; assay type: functional; conditions: dose 50 µg; route it(Intratumoral)
RPMI-8226 [3] = test: Induction of apoptosis in human RPMI-8226 cells assessed as proportion of necrotic cells at 2.5 uM incubated for 24 hrs by AnnexinV-FITC/PI staining based flow cytometry (reference value: 0.49%); assay type: functional, cell-based
RPMI-8226 [4] = test: Induction of cell cycle arrest in human RPMI-8226 cells assessed as proportion of cells at G1 phase at 2.5 uM incubated for 24 hrs by PI staining based flow cytometry (reference value: 33.5%); assay type: functional
RPMI-8226 [5] = test: Induction of cell cycle arrest in human RPMI-8226 cells assessed as proportion of cells at G2/M phase at 2.5 uM incubated for 24 hrs by PI staining based flow cytometry (reference value: 19.8%); assay type: functional
RPMI-8226 [6] = test: Antiproliferative activity against human RPMI-8226 cells assessed as inhibition of cell proliferation incubated for 48 hrs by CCK8 assay; assay type: functional, cell-based; conditions: RPMI-8226, 48 h
[7] = Toxicity in NCG mouse xenografted with human RPMI-8226 cells assessed as weakness at 50 ug administered intratumorally every 2 days; conditions: in vivo, other, 48 h, route it(Intratumoral), dose 50 µg
RPMI-8226 [8] = test: Induction of apoptosis in human RPMI-8226 cells assessed as proportion of late apoptotic cells at 2.5 uM incubated for 24 hrs by AnnexinV-FITC/PI staining based flow cytometry (reference value: 4.18%); assay type: functional, cell-based
RPMI-8226 [9] = test: Induction of apoptosis in human RPMI-8226 cells assessed as proportion of early apoptotic cells at 2.5 uM incubated for 24 hrs by AnnexinV-FITC/PI staining based flow cytometry (reference value: 10.63%); assay type: functional, cell-based
RPMI-8226 [10] = test: Induction of apoptosis in human RPMI-8226 cells assessed as proportion of late apoptotic cells at 0.5 uM incubated for 24 hrs by AnnexinV-FITC/PI staining based flow cytometry (reference value: 4.18%); assay type: functional, cell-based
U-266 = test: Antiproliferative activity against human U-266 cells assessed as inhibition of cell proliferation incubated for 48 hrs by CCK8 assay; assay type: functional, cell-based; conditions: U-266, 48 h
RPMI-8226 [11] = test: Induction of apoptosis in human RPMI-8226 cells assessed as proportion of viable cells at 2.5 uM incubated for 24 hrs by AnnexinV-FITC/PI staining based flow cytometry (reference value: 84.71%); assay type: functional, cell-based
[12] = Toxicity in NCG mouse xenografted with human RPMI-8226 cells assessed as animal's death at 50 ug administered intratumorally every 2 days; conditions: in vivo, other, 48 h, route it(Intratumoral), dose 50 µg
[13] = Toxicity in NCG mouse xenografted with human RPMI-8226 cells assessed as body weight loss at 50 ug administered intratumorally every 2 days; conditions: in vivo, other, 48 h, route it(Intratumoral), dose 50 µg
RPMI-8226 [14] = test: Induction of apoptosis in human RPMI-8226 cells assessed as proportion of viable cells at 0.5 uM incubated for 24 hrs by AnnexinV-FITC/PI staining based flow cytometry (reference value: 84.71%); assay type: functional, cell-based
MM1.S = test: Antiproliferative activity against human MM1.S cells assessed as inhibition of cell proliferation incubated for 48 hrs by CCK8 assay; assay type: functional, cell-based
RPMI-8226 [15] = test: Induction of apoptosis in human RPMI-8226 cells assessed as proportion of early apoptotic cells at 0.5 uM incubated for 24 hrs by AnnexinV-FITC/PI staining based flow cytometry (reference value: 10.63%); assay type: functional, cell-based
RPMI-8226 [16] = test: Induction of apoptosis in human RPMI-8226 cells assessed as proportion of necrotic cells at 0.5 uM incubated for 24 hrs by AnnexinV-FITC/PI staining based flow cytometry (reference value: 0.49%); assay type: functional, cell-based
[17] = Cytotoxicity against human L02 cells assessed as inhibition of cell proliferation incubated for 48 hrs by CCK8 assay; assay type: toxicity, cell-based
RPMI-8226 [18] = test: Induction of cell cycle arrest in human RPMI-8226 cells assessed as proportion of cells at S phase at 2.5 uM incubated for 24 hrs by PI staining based flow cytometry (reference value: 46.7%); assay type: functional

O=C(CCCCCCNC(=O)c1cnc(N(c2ccccc2)c2ccccc2Cl)nc1)NO [CITARINOSTAT]
TGI (RPMI-8226 [1]): 46%
T/C (RPMI-8226 [2]): 61%
Activity (RPMI-8226 [3]): Active
Activity (RPMI-8226 [4]): 32.7%
Activity (RPMI-8226 [5]): 22.6%
IC50 (RPMI-8226 [6]): 3.5 µM
Activity [7]: Toxic
Activity (RPMI-8226 [8]): Active
Activity (RPMI-8226 [9]): Active
Activity (RPMI-8226 [10]): Active
IC50 (U-266): 4.3 µM
Activity (RPMI-8226 [11]): Active
Activity [12]: Toxic
Activity [13]: Non-Toxic
Activity (RPMI-8226 [14]): Active
IC50 (MM1.S): 2 µM
Activity (RPMI-8226 [15]): Active
Activity (RPMI-8226 [16]): Active
IC50 at 48 h [17]: 15.2 µM
Activity (RPMI-8226 [18]): 44.7%
